Read-outs that look alike come from different tables or passages of the source.
What was measured:
EGFR L858R/T790M/C797S = EGFR L858R/T790M/C797S (Homo sapiens, UniProt P00533, C797S/L858R/T790M); assay: Biochemical EGFR kinase assay (Lance Ultra TR-FRET), triple mutant L858R/T790M/C797S
Method in brief: (§1)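 Kinase activity is measured by TR-FRET phosphopeptide detection. Compounds span 0.003 μM to 10 μM; the 1 h reaction at room temperature is quenched with EDTA, then labelled antibody (2 nM) is incubated 60 min before reading.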

EGFR del19/C797S = EGFR del19/C797S (Homo sapiens, UniProt P00533, C797S/DEL746-750); assay: Biochemical EGFR kinase assay (Lance Ultra TR-FRET), double mutant del19/C797S
Method in brief: as §1

EGFR L858R/C797S = EGFR L858R/C797S (Homo sapiens, UniProt P00533, C797S/L858R); assay: Biochemical EGFR kinase assay (Lance Ultra TR-FRET), double mutant L858R/C797S
Method in brief: as §1

EGFR wildtype (WT) = EGFR wildtype (WT) (Homo sapiens, UniProt P00533); assay: Biochemical EGFR kinase assay (Lance Ultra TR-FRET), wildtype
Method in brief: as §1

EGFR del19/T790M/C797S = EGFR del19/T790M/C797S (Homo sapiens, UniProt P00533, C797S/DEL746-750/T790M); assay: Biochemical EGFR kinase assay (Lance Ultra TR-FRET), triple mutant del19/T790M/C797S
Method in brief: as §1

[1] = IC50 L858R/T790M/C797S (nM) 100 μM ATP, 100 μM ATP
[2] = Km ATP, read-out: IC50 L858R/T790M/C797S (nM) Km ATP
[3] = IC50 del19/C797S (nM) 100 μM ATP, 100 μM ATP
[4] = Km ATP, read-out: IC50 del19/C797S (nM) Km ATP
[5] = IC50 L858R/C797S (nM) 100 μM ATP, 100 μM ATP
[6] = Km ATP, read-out: IC50 L858R/C797S (nM) Km ATP
[7] = IC50 WT (nM) 100 μM ATP, 100 μM ATP
[8] = Km ATP, read-out: IC50 WT (nM) Km ATP
[9] = IC50 del19/T790M/C797S (nM) 100 μM ATP, 100 μM ATP
[10] = Km ATP, read-out: IC50 del19/T790M/C797S (nM) Km ATP

Chain of EGFR L858R/T790M/C797S (P00533 25-1210 T790M/C797S/L858R): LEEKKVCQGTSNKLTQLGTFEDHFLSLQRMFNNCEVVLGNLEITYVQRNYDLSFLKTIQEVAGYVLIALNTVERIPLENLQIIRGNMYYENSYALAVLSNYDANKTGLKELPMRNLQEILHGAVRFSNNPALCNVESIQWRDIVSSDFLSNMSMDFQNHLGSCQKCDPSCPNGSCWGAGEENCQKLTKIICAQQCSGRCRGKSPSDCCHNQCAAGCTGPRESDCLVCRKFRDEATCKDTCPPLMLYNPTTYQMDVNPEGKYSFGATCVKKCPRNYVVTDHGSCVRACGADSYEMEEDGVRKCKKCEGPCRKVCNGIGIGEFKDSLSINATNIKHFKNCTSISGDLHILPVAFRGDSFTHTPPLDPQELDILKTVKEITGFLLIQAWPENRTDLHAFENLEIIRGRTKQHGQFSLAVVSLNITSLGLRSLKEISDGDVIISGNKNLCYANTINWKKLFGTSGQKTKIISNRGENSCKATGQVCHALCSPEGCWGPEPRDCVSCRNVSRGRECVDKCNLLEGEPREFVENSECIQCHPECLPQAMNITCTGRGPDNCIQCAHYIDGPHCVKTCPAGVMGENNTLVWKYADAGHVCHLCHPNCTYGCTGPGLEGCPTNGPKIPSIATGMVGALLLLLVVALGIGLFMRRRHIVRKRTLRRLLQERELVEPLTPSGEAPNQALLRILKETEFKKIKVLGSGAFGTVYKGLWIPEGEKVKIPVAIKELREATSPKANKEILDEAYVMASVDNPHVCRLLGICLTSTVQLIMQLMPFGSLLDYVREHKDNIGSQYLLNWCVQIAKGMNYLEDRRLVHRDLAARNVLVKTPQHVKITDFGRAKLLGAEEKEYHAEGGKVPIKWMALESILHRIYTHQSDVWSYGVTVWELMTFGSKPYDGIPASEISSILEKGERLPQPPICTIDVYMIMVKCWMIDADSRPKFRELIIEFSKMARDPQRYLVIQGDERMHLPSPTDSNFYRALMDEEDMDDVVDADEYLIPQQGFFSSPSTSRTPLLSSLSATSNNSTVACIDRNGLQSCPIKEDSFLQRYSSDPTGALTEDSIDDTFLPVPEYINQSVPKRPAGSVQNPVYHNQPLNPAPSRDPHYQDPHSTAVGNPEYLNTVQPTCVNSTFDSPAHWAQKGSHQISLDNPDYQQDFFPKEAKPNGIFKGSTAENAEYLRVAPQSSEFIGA
Chain of EGFR L858R/C797S (P00533 25-1210 C797S/L858R): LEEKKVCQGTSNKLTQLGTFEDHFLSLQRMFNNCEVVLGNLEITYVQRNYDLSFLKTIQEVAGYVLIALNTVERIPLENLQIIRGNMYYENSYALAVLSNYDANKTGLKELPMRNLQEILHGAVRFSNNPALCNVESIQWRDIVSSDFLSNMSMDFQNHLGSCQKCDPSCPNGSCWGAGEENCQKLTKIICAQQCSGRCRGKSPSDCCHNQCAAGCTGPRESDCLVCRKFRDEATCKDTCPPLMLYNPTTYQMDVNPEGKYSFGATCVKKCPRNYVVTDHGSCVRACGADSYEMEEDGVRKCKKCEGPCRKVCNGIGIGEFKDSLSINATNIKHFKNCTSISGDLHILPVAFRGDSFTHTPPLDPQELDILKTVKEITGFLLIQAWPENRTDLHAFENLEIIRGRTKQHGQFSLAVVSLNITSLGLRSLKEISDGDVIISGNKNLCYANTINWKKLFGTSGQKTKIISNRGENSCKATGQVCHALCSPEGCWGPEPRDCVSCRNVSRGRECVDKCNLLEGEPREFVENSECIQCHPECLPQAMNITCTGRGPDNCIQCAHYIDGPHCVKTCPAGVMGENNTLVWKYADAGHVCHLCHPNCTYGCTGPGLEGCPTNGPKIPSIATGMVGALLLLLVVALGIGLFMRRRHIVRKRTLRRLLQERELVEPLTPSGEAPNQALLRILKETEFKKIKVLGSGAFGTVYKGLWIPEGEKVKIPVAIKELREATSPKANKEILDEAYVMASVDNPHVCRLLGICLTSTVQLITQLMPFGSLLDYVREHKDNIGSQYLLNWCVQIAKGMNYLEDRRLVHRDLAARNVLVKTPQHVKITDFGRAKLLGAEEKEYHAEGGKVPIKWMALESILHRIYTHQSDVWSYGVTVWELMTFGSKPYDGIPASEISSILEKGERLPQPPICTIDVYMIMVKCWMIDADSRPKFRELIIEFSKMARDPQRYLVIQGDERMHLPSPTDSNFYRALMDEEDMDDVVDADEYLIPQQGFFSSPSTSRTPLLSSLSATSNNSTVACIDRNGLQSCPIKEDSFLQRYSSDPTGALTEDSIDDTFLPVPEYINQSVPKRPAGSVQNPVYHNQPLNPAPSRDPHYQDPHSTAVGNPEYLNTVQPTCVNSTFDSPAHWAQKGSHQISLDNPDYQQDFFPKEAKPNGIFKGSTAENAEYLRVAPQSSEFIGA
Chain of EGFR del19/T790M/C797S (P00533 with tags, fused parts or gaps DEL746-750/T790M/C797S): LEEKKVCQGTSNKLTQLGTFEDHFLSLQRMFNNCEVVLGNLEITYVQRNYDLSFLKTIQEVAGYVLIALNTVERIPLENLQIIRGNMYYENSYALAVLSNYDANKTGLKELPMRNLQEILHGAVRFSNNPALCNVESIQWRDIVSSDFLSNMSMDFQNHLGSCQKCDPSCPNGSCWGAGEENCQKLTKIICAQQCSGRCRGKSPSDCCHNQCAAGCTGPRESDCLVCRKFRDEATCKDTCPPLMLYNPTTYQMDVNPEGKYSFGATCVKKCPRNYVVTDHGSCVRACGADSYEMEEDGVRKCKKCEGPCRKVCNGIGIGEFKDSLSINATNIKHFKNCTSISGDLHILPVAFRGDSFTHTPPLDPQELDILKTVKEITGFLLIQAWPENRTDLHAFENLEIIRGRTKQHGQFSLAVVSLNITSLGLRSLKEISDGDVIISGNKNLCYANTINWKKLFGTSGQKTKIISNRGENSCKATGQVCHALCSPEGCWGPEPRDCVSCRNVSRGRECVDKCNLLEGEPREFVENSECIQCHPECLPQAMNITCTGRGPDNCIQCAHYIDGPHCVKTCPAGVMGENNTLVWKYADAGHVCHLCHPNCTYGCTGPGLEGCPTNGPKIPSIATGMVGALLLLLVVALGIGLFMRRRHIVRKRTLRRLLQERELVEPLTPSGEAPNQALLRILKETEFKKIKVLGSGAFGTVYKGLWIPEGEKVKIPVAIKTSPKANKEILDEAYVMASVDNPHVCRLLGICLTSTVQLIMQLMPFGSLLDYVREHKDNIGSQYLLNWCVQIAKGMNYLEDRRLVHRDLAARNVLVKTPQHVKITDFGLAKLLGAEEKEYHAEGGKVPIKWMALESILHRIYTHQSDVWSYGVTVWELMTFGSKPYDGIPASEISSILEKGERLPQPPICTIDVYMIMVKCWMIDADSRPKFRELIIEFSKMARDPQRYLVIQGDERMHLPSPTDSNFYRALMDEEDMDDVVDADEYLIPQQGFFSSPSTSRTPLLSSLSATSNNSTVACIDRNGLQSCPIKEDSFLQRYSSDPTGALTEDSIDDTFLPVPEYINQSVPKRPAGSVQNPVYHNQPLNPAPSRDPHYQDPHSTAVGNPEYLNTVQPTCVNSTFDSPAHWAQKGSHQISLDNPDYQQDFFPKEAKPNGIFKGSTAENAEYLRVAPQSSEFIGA
Chain of EGFR del19/C797S (P00533 with tags, fused parts or gaps DEL746-750/C797S): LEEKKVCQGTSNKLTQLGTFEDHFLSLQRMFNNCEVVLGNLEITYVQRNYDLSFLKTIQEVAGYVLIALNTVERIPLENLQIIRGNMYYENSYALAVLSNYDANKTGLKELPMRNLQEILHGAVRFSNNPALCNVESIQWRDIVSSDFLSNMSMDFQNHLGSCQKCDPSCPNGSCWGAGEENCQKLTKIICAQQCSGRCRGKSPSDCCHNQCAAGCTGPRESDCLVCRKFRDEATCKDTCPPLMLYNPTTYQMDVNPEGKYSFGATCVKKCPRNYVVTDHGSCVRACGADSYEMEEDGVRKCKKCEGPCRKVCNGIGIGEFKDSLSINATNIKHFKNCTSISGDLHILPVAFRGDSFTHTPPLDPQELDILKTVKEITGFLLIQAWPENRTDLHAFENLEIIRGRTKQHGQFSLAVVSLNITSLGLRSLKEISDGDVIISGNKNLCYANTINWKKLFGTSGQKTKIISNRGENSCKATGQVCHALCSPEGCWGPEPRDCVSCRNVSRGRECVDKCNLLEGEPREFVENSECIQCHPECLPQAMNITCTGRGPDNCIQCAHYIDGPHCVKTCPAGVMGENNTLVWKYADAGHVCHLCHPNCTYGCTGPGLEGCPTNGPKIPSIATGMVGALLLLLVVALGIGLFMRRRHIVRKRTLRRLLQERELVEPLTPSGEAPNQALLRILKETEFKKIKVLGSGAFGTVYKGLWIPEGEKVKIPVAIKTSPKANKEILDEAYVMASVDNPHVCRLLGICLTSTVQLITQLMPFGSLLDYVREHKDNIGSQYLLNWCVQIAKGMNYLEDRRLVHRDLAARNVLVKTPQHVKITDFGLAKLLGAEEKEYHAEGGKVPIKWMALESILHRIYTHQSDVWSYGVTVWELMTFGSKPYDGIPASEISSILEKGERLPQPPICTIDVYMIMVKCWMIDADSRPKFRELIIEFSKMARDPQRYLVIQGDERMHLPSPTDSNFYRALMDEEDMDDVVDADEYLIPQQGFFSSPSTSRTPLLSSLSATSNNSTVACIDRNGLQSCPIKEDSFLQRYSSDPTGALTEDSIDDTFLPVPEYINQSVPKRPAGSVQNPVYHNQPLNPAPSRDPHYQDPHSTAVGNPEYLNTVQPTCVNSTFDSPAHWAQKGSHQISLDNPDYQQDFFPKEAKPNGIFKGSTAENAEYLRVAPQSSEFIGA

Compound	IC50 (EGFR L858R/T790M/C797S; read-out: IC50 L858R/T790M/C797S (nM) 100 μM ATP, 100 μM ATP)	IC50 (EGFR del19/C797S; read-out: IC50 del19/C797S (nM) 100 μM ATP, 100 μM ATP)	IC50 (EGFR L858R/C797S; read-out: IC50 L858R/C797S (nM) 100 μM ATP, 100 μM ATP)	IC50 (EGFR wildtype (WT); read-out: IC50 WT (nM) 100 μM ATP, 100 μM ATP)	IC50 (EGFR del19/T790M/C797S; read-out: IC50 del19/T790M/C797S (nM) 100 μM ATP, 100 μM ATP)	IC50 (EGFR L858R/T790M/C797S; [1])	IC50 (EGFR L858R/T790M/C797S; [2])	IC50 (EGFR del19/C797S; [3])	IC50 (EGFR del19/C797S; [4])	IC50 (EGFR L858R/C797S; [5])	IC50 (EGFR L858R/C797S; [6])	IC50 (EGFR wildtype (WT); [7])	IC50 (EGFR wildtype (WT); [8])	IC50 (EGFR del19/T790M/C797S; [9])	IC50 (EGFR del19/T790M/C797S; [10])
CC(C)(O)[C@H]1CC[C@@H](Nc2cc(Nc3ccnc(-c4cnn(S(=O)(=O)C5CC5)c4)n3)ncc2-c2csc(C(F)(F)F)n2)CC1 [Example 49, 2-((1s,4s)-4-((2-((2-(1-(Cyclopropylsulfonyl)-1H-pyrazol-4-yl)pyrimidin-4-yl)amino)-5-(2-(trifluoromethyl)thiazol-4-yl)pyridin-4-yl)amino)cyclohexyl)propan-2-ol]	28.7 nM	200 nM	278 nM	> 10000 nM	18.8 nM										
CCS(=O)(=O)n1cc(-c2nccc(Nc3cc(N[C@H]4CC[C@@](C)(O)CC4)c(-c4ccn(C(F)F)n4)cn3)n2)cn1 [Example 308, (1s,4s)-4-((5-(1-(Difluoromethyl)-1H-pyrazol-3-yl)-2-((2-(1-(ethylsulfonyl)-1H-pyrazol-4-yl)pyrimidin-4-yl)amino)pyridin-4-yl)amino)-1-methylcyclohexan-1-ol]						0.4 nM	0.2 nM	0.4 nM	0.5 nM	4.1 nM	0.4 nM	3640 nM	44.2 nM	0.4 nM	0.4 nM
O=S(=O)(C1CC1)n1cc(-c2nccc(Nc3cc(NCCCn4ccnc4)c(-c4ccn(C(F)F)n4)cn3)n2)cn1 [Example 41, N^4-(3-(1H-Imidazol-1-yl)propyl)-N^2-(2-(1-(cyclopropylsulfonyl)-1H-pyrazol-4-yl)pyrimidin-4-yl)-5-(1-(difluoromethyl)-1H-pyrazol-3-yl)pyridine-2,4-diamine]						6.8 nM		34.8 nM		> 10000 nM		> 10000 nM		2 nM	
O=S(=O)(C1CC1)n1cc(-c2nccc(Nc3cc(N[C@H]4CC[C@@H](NCC(F)F)CC4)c(-c4csc(C(F)(F)F)n4)cn3)n2)cn1 [Example 53, N^2-(2-(1-(Cyclopropylsulfonyl)-1H-pyrazol-4-yl)pyrimidin-4-yl)-N^4-((1s,4s)-4-((2,2-difluoroethyl)amino)cyclohexyl)-5-(2-(trifluoromethyl)thiazol-4-yl)pyridine-2,4-diamine]						11.3 nM	2.9 nM	14.2 nM	7.7 nM	264 nM	15 nM	> 10000 nM	105 nM	9.4 nM	8.5 nM
COc1ncc(-c2nccc(Nc3cc(N[C@H]4CC[C@@](C)(O)CC4)c(-c4ccn(C(F)F)n4)cn3)n2)cc1F [Example 178, (1s,4s)-4-((5-(1-(Difluoromethyl)-1H-pyrazol-3-yl)-2-((2-(5-fluoro-6-methoxypyridin-3-yl)pyrimidin-4-yl)amino)pyridin-4-yl)amino)-1-methylcyclohexan-1-ol]							16.8 nM		102 nM		3 nM		2110 nM		46.2 nM
Cn1ccc(-c2cnc(Nc3ccnc(-c4cnn(S(=O)(=O)C5CC5)c4)n3)cc2NC[C@H]2CC[C@H](O)CC2)n1 [Example 47, (1r,4r)-4-(((2-((2-(1-(Cyclopropylsulfonyl)-1H-pyrazol-4-yl)pyrimidin-4-yl)amino)-5-(1-methyl-1H-pyrazol-3-yl)pyridin-4-yl)amino)methyl)cyclohexan-1-ol]						0.5 nM	0.1 nM	0.8 nM	0.5 nM	6.5 nM	0.8 nM	> 10000 nM	4.5 nM	0.6 nM	0.6 nM
Cc1cc(-c2cnc(Nc3ccnc(-c4cnn(S(=O)(=O)C5CC5)c4)n3)cc2N[C@H]2CC[C@@H](CO)CC2)nn1C [Example 280, ((1s,4s)-4-((2-((2-(1-(Cyclopropylsulfonyl)-1H-pyrazol-4-yl)pyrimidin-4-yl)amino)-5-(1,5-dimethyl-1H-pyrazol-3-yl)pyridin-4-yl)amino)cyclohexyl)methanol]						0.7 nM	1 nM	0.7 nM	0.2 nM	3.8 nM	0.3 nM	51.9 nM	0.4 nM	1 nM	0.8 nM
